Values quoted from earlier work in US20080171724A1, “Phosphonate Derivatives of Mycophenolic Acid” (GILEAD SCIENCES, INC., priority 2004, published 2008).

Conditions: after oral or intravenous administration; converted to active metabolite mycophenolic acid

Q: For `COc1c(C)c2c(c(O)c1C/C=C(\C)CCC(=O)OCCN1CCOCC1)C(=O)OC2` [Mycophenolate mofetil], which “fraction of the drug cleared by glucuronidation and excreted in the urine” value is on record?
A: over 90%
